Values after ≈ are worked out from the molar mass of the structure shown.

Consider nine compounds from US8993574B2, “Pyrrole antifungal agents” (F2G Ltd, priority 2008, dated 2015).

Holding throughout (type): cell-based
Test [1] concerns Aspergillus flavus. As to the kind of experiment: MIC, YAG medium. The note with it: 24 h at 35° C, MIC banded into grades; for MIC: Aspergillus flavus, 24 h, read-out: MIC grade, A. flavus. Put shortly:
(§1)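 Growth inhibition was measured by absorbance at 485 nm following 24 h at 35° C. Spores harvested after 5 days on Sabouraud agar served as inoculum (1−2×10^4 cfu/mL, YAG medium). The lowest drug level producing >70% inhibition was taken as MIC.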

For test [2], the system named is Aspergillus fumigatus AF210. As to the kind of experiment: MIC, YAG medium. The note with it: 24 h at 35° C, MIC banded into grades; for MIC: Aspergillus fumigatus, read-out: MIC grade, A. fumigatus 210. The method, boiled down:
as §1

In test [3] the test system is Aspergillus fumigatus AF293. As to the kind of experiment: MIC, YAG medium. The note with it: 24 h at 35° C, MIC banded into grades; for MIC: Aspergillus fumigatus, read-out: MIC grade, A. fumigatus. Put shortly:
as §1

Test [4] concerns Aspergillus niger. As to the kind of experiment: MIC, YAG medium. Particulars: 24 h at 35° C, MIC banded into grades; for MIC: Aspergillus niger, read-out: MIC grade, A. niger. The method, boiled down:
as §1

Test [5] has as its system Aspergillus terreus AT49. Description: MIC, YAG medium. The note with it: 24 h at 35° C, MIC banded into grades; for MIC: Aspergillus terreus, read-out: MIC grade, A. terreus 49. The method, boiled down: as §1
The subject of test [6] is Aspergillus terreus AT4. As to the kind of experiment: MIC, YAG medium. The note with it: 24 h at 35° C, MIC banded into grades; for MIC: Aspergillus terreus, read-out: MIC grade, A. terreus. Put shortly: as §1
The subject of test [7] is Aspergillus flavus. As to the kind of experiment: MIC, RPMI medium. Particulars: MIC banded into grades; for MIC: Aspergillus flavus, read-out: MIC grade, A. flavus. Put shortly: (§2)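 Broth microdilution in RPMI medium with 2% glucose and 0.135 M MOPS (pH 7.0); compounds as doubling dilutions over 50-0.05 mg/L, inoculum 1−2×10^4 cfu/mL. Plates incubated 24-48 h at 35° C; OD 485 nm read, MIC being lowest concentration giving >80% growth inhibition versus drug-free control.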

Test [8] relates to Aspergillus fumigatus AF210. Description: MIC, RPMI medium. The note with it: for MIC: Aspergillus fumigatus, AF210, MIC banded into grades, read-out: MIC grade, A. fumigatus 210. Put shortly:
as §2

Test [9] relates to Aspergillus fumigatus AF293. As to the kind of experiment: MIC, RPMI medium. The note with it: for MIC: Aspergillus fumigatus, AF293, MIC banded into grades, read-out: MIC grade, A. fumigatus. The method, boiled down:
as §2

The test system of test [10] is Aspergillus niger. Description: MIC, RPMI medium. The note with it: MIC banded into grades; for MIC: Aspergillus niger, read-out: MIC grade, A. niger. The method, boiled down: as §2
Test [11] relates to Aspergillus terreus AT49. Description: MIC, RPMI medium. Particulars: for MIC: Aspergillus terreus, AT49, MIC banded into grades, read-out: MIC grade, A. terreus 49. The method, boiled down: as §2
The test system of test [12] is Aspergillus terreus AT4. As to the kind of experiment: MIC, RPMI medium. The note with it: for MIC: Aspergillus terreus, AT4, MIC banded into grades, read-out: MIC grade, A. terreus. The method, boiled down: as §2

What is called MIC is the smallest concentration in the dilution series that meets the test's criterion for growth inhibition. As to `COCCn1c(C)cc(-c2ccccc2)c1C(=O)C(=O)Nc1ccc(N2CCN(c3cc(C)cc(C)n3)CC2)c(Cl)c1` [Example 24, N-{3-Chloro-4-[4-(4,6-dimethyl-pyridin-2-yl)-piperazin-1-yl]-phenyl}-2-[1-(2-methoxy-ethyl)-5-methyl-3-phenyl-1H-pyrrol-2-yl]-2-oxo-acetamide], the MIC in test [1], in [2], in test [3], in [4], in test [5] and in test [6] was less than 1 µg/mL throughout. Also, the MIC in test [7] is 1 to 10 µg/mL (≈ 1.71 to 17.1 µM); in test [8], less than 1 µg/mL; in [9], less than 1 µg/mL; in [10] it was less than 1 µg/mL; in test [11], more than 10 µg/mL; in test [12] it was 1 to 10 µg/mL (≈ 1.71 to 17.1 µM).
`COCCc1cc(-c2ccccc2)c(C(=O)C(=O)Nc2ccc(N3CCN(c4cc(C)cc(C)n4)CC3)cc2)n1C` [Example 129, N-{4-[4-(4,6-Dimethyl-pyridin-2-yl)-piperazin-1-yl]-phenyl}-2-[5-(2-methoxy-ethyl)-1-methyl-3-phenyl-1H-pyrrol-2-yl]-2-oxo-acetamide]: the minimal inhibitory concentration (MIC) in test [1], in [2], in test [3], in [4], in test [5] and in test [6] was less than 1 µg/mL in each case. The MIC was less than 1 µg/mL in test [7]; 1 to 10 µg/mL (≈ 1.81 to 18.1 µM) in test [8]; less than 1 µg/mL in test [9]; 1 to 10 µg/mL (≈ 1.81 to 18.1 µM) in test [10]; 1 to 10 µg/mL (≈ 1.81 to 18.1 µM) in [11]; 1 to 10 µg/mL (≈ 1.81 to 18.1 µM) in [12].
Turning to `Cc1cc(-c2ccccc2)c(C(=O)C(=O)Nc2ccc(-c3ncc(CN4CCCCC4)o3)cc2)n1C` [Example 153, 2-(1,5-Dimethyl-3-phenyl-1H-pyrrol-2-yl)-2-oxo-N-[4-(5-piperdin-1-ylmethyl-oxazol-2-yl)-phenyl]-acetamide], the “MIC grade, A. flavus” value in test [1] is recorded as 3 (A grade of 3 represents an MIC of less than 1 mg/L); in [7] it was 2 (A grade of 2 represents an MIC of from 1 to 10 mg/L). The “MIC grade, A. fumigatus 210” value in test [2] and in test [8] (MIC banded into grades) was 2 (A grade of 2 represents an MIC of from 1 to 10 mg/L) throughout. The “MIC grade, A. fumigatus” value in test [3] is 3 (A grade of 3 represents an MIC of less than 1 mg/L); in test [9] (MIC banded into grades), 2 (A grade of 2 represents an MIC of from 1 to 10 mg/L). In addition, the “MIC grade, A. niger” value in [4] and in [10] was 3 (A grade of 3 represents an MIC of less than 1 mg/L) in each case. For the same compound, the “MIC grade, A. terreus 49” value in test [5] and in test [11] (MIC banded into grades) was 3 (A grade of 3 represents an MIC of less than 1 mg/L) in each case. Also, the “MIC grade, A. terreus” value in [6] was 2 (A grade of 2 represents an MIC of from 1 to 10 mg/L); in [12] (MIC banded into grades) it was 3 (A grade of 3 represents an MIC of less than 1 mg/L).
With `Cc1cc(-c2ccccc2)c(C(=O)C(=O)Nc2ccc(N3CCN(C(C)Cc4ccco4)CC3)cc2)n1C` (stereo not drawn) [Example 152, 2-(1,5-Dimethyl-3-phenyl-1H-pyrrol-2-yl)-N-{4-[4-(2-furan-2-yl-1-methyl-ethyl)-piperazin-1-yl]-phenyl}-2-oxo-acetamide], the minimum inhibitory concentration (MIC) in [1], in test [2], in [3], in [4], in test [5] and in test [6] was less than 1 µg/mL each time. The MIC in test [7], in test [8], in test [9], in [10], in test [11] and in test [12] was less than 1 µg/mL in each case.
As for `Cc1cc(C)nc(N2CCN(c3ccc(NC(=O)C(=O)c4c(-c5ccccc5)ccn4CCO)cc3)CC2)c1` [Example 66, N-{4-[4-(4,6-Dimethyl-pyridin-2-yl)-piperazin-1-yl]-phenyl}-2-[1-(2-hydroxy-ethyl)-3-phenyl-1H-pyrrol-2-yl]-2-oxo-acetamide], the minimal inhibitory concentration (MIC) was 1 to 10 µg/mL (≈ 1.91 to 19.1 µM) in test [1]; 1 to 10 µg/mL (≈ 1.91 to 19.1 µM) in test [2]; less than 1 µg/mL in test [3]; more than 10 µg/mL in test [4]; less than 1 µg/mL in [5]; 1 to 10 µg/mL (≈ 1.91 to 19.1 µM) in test [6]. For the same compound, the minimal inhibitory concentration (MIC) in [7] is more than 10 µg/mL; in [8] it was 1 to 10 µg/mL (≈ 1.91 to 19.1 µM); in [9], 1 to 10 µg/mL (≈ 1.91 to 19.1 µM); in [10], more than 10 µg/mL; in test [11] it was 1 to 10 µg/mL (≈ 1.91 to 19.1 µM); in test [12] it was 1 to 10 µg/mL (≈ 1.91 to 19.1 µM).
`Cc1cc(-c2ccccc2)c(C(=O)C(=O)Nc2cccc3ncccc23)n1C` [Example 32, 2-(1,5-Dimethyl-3-phenyl-1H-pyrrol-2-yl)-2-oxo-N-quinolin-5-yl-acetamide]: the MIC in test [1] was less than 1 µg/mL; in test [2], 1 to 10 µg/mL (≈ 2.71 to 27.1 µM); in test [3], 1 to 10 µg/mL (≈ 2.71 to 27.1 µM); in [4], 1 to 10 µg/mL (≈ 2.71 to 27.1 µM); in test [5], less than 1 µg/mL; in test [6], less than 1 µg/mL. Besides, the MIC in [7] is 1 to 10 µg/mL (≈ 2.71 to 27.1 µM); in [8], more than 10 µg/mL; in [9], more than 10 µg/mL; in test [10], 1 to 10 µg/mL (≈ 2.71 to 27.1 µM); in test [11], 1 to 10 µg/mL (≈ 2.71 to 27.1 µM); in test [12] it was 1 to 10 µg/mL (≈ 2.71 to 27.1 µM).
Take `COCCn1c(C)cc(-c2ccccc2)c1C(=O)C(=O)Nc1ccc(N2CCN(CC(C)C)CC2)cc1F` [Example 110, N-[2-Fluoro-4-(4-isobutyl-piperazin-1-yl)-phenyl]-2-[1-(2-methoxy-ethyl)-5-methyl-3-phenyl-1H-pyrrol-2-yl]-2-oxo-acetamide]: the minimum inhibitory concentration (MIC) in [1] is 1 to 10 µg/mL (≈ 1.92 to 19.2 µM); in test [2], less than 1 µg/mL; in [3], less than 1 µg/mL; in [4] it was less than 1 µg/mL; in test [5] it was 1 to 10 µg/mL (≈ 1.92 to 19.2 µM); in test [6], less than 1 µg/mL. For the same compound, the MIC was 1 to 10 µg/mL (≈ 1.92 to 19.2 µM) in [7]; less than 1 µg/mL in test [8]; less than 1 µg/mL in test [9]; 1 to 10 µg/mL (≈ 1.92 to 19.2 µM) in test [10]; less than 1 µg/mL in [11]; less than 1 µg/mL in [12].
Consider `Cc1cc(C)nc(N2CCN(c3ccc(NC(=O)C(=O)c4c(-c5ccccc5)cc5n4CCC5)cc3)CC2)c1` [Example 6, N-{4-[4-(4,6-Dimethyl-pyridin-2-yl)-piperazin-1-yl]-phenyl}-2-oxo-2-(2-phenyl-6,7-dihydro-5H-pyrrolizin-3-yl)-acetamide], for which the minimal inhibitory concentration (MIC) in [1], in test [2], in [3], in [4], in test [5] and in [6] was less than 1 µg/mL throughout. The MIC in [7], in test [8], in test [9], in test [10], in [11] and in test [12] was less than 1 µg/mL throughout.
Take `Cc1cccc(N2CCN(c3ccc(NC(=O)C(=O)c4c(-c5ccccc5)cc(C)n4C)cc3)CC2)n1` [Example 39, 2-(1,5-Dimethyl-3-phenyl-1H-pyrrol-2-yl)-N-{4-[4-(6-methyl-pyridin-2-yl)-piperazin-1-yl]-phenyl}-2-oxo-acetamide]: the minimal inhibitory concentration (MIC) in test [1], in [2], in test [3], in [4], in test [5] and in [6] was less than 1 µg/mL throughout. Besides, the minimal inhibitory concentration (MIC) in test [7], in [8], in test [9], in test [10], in test [11] and in test [12] was less than 1 µg/mL throughout.
